This note sets out measurements from patent publication US20240159780A1, “PREDICTION OF AMOUNT OF IN VIVO DOPAMINE ETC., AND APPLICATION THEREOF” (Sumitomo Pharma Co., Ltd., priority 2021, published 2024).

Series [1] concerns MPTP-induced PD-LID model rhesus monkeys. Briefly: Number of blinks (eye tracking) after L-DOPA in MPTP-induced PD-LID model rhesus monkeys. Type of series: in vivo, rhesus monkey.
Series [2] has the same test system. The series can be described thus: Dyskinesia score and generalized dyskinesia score in MPTP-induced PD-LID model rhesus monkeys. In kind it is in vivo, rhesus monkey.
The next series deals with PD-LID model rats. Briefly: Striatal dopamine release by microdialysis in PD-LID model rats. In kind it is in vivo, rat. The conditions noted are these: levodopa i.p. As to the method: As a representative experimental model for Parkinson's disease, a rat striatal dopaminergic neuron destruction model is known in which 6-hydroxydopamine (hereinafter sometimes referred to as “6-OHDA”) is locally administered to one side of the brain (6-OHDA unilateral treated rat (6-OHDA injured rat)). Male Wistar rats (12 weeks old, Japan SLC, Inc.) were used to prepare model animals. Desipramine hydrochloride (25 mg/kg; Wako Pure Chemical Industries, Ltd.) was intraperitoneally administered, and 30 minutes after the administration, inhalation anesthesia with isoflurane was performed using a general anesthesia machine for experimental animals. Under isoflurane anesthesia, the rat was fixed in a stereotaxic apparatus, the skin of the head was incised with a surgical scalpel to expose the cranial bone, and the coordinate of bregma, which is the starting point (AP: 0, ML: 0, DV: 0), was confirmed, and the coordinate of the right medial forebrain bundle (AP: −4.4 mm, ML: 1.5 mm, DV: 7.8 mm from bregma) was measured. […]
In order to measure striatal dopamine release, guide cannula implantation into the striatum of PD-LID model rats and chromatography were performed by a method described in a reference (Pharmacol Res Perspect. 2015 June; 3(3): e00142.). […] Using an HPLC-ECD system (EiCOM Co., Ltd.), the amount of dopamine in the collected dialysate was measured. […]

[3] abbreviates: L-DOPA 22 mg/kg with Benserazide, oral.

SMILES strings stand for the structures. Entries after “also recorded” stand apart in the source; their conditions may differ.

Consider `N[C@@H](Cc1ccc(O)c(O)c1)C(=O)O` [L-DOPA, (S)-2-amino-3-(3,4-dihydroxyphenyl) propanoic acid], for which, in series [1] (30 to 120 minutes after administration (60 to 150 minutes after start of measurement), one individual), the “total number of blinks compared to vehicle” value is on record as “tended to increase; also recorded: clear tendency to increase”. The “time after administration from which the number of blinks increased” value in series [1] (L-DOPA 22 mg/kg with Benserazide 1/4 weight, oral, blinks tallied every 3 minutes) is listed as “about 30 minutes”. In addition, the “time of peak of number of blinks with an intermediate duration (0.16≤T<0.18)” value in series [1] (after oral L-DOPA 22 mg/kg, rapid decrease, then gradual increase) was “around 30 minutes”. In series [2] (setting [3]), the “time after administration at which the dyskinesia score increased” value is reported as “about 20 minutes”, the “time after administration from which the score of generalized dyskinesia declined” value is given as “around 150 minutes”, the “time after administration from which the score of generalized dyskinesia increased” value was 60 min and the “time after administration of the peak dyskinesia score” value amounted to 60 min. Further, in series [2] (setting [3]), the “time after administration of the peak score of generalized dyskinesia” value is “around 90 minutes”. The “decay of the dyskinesia score” value in series [2] (L-DOPA 22 mg/kg with Benserazide, oral, measured for 180 minutes) is on record as “did not decay until 180 minutes”.
Consider `O=C1[C@@H]2[C@H]3CC[C@H](C3)[C@@H]2C(=O)N1CCCCN1CCN(c2ncccn2)CC1` [tandospirone], for which the “rapid changes and temporal decreases in the dopamine amount in the synaptic cleft in the striatum” value with PD-LID model rats is reported as “suppresses”. In addition, the dyskinesia score result in series [2] (tandospirone ointment transdermal 19 hours prior to testing, with L-DOPA, vs non-tandospirone administration) was “decrease”.
